Reference: patent US20050209278A1, “Piperidinyl- and piperazinyl-sulfonylmethyl hydroxamic acids and their use as protease inhibitors” (priority 2002, published 2005)

How the values were obtained:
MMP-14 = molecular target: T1, MMP-14 (Homo sapiens, UniProt P50281); assay: In vitro MMP inhibition, Ki determination (fluorogenic substrate II); format: biochemical; conditions: value outside parentheses; read-out: MMP-14 Ki
T1 construct: The catalytic domain enzyme was expressed in E. coli inclusion bodies, solubilized in urea; made in house
Summary of the method: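 E. coli-expressed, refolded MMP-14 catalytic domain, activated with APMA or trypsin, in 100 mM Tris-HCl pH 7.5, 100 mM NaCl, 10 mM CaCl2, 0.05% Brij-type detergent. Apparent Ki by Morrison-equation regression of velocity vs inhibitor and enzyme concentration.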

MMP-9 = molecular target: T2, MMP-9 (Homo sapiens, UniProt P14780); assay: as above; format: biochemical; conditions: value outside parentheses
T2 construct: made in house; host or cells: MMP-9-transfected HT1080 cells (spent media)
Summary of the method: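 HT1080-derived MMP-9, activated with APMA, trypsin or MMP-3, incubated 1 hr at room temperature with inhibitor and 4 μM fluorogenic substrate II (at or below Km) in pH 7.5 Tris/NaCl/CaCl2 buffer; ex 330/em 420 nm. Ki from Morrison-equation regression, without substrate correction.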

T2 sequence (P14780 107-707 limits assumed): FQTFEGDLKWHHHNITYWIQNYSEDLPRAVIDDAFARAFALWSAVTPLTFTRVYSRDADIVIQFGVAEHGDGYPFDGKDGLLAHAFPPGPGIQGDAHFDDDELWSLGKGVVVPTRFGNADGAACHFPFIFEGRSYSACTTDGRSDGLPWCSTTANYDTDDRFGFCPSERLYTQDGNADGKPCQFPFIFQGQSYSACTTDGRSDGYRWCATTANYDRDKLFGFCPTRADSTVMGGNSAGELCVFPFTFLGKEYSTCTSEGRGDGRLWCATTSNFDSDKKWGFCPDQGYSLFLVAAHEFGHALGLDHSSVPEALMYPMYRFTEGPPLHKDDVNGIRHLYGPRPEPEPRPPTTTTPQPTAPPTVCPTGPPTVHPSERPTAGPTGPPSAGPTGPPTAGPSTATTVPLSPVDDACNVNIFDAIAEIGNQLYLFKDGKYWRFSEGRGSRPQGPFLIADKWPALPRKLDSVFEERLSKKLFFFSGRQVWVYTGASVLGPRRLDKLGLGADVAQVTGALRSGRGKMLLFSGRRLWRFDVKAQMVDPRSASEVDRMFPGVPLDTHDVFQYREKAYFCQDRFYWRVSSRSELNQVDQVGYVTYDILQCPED

Row | Ki (MMP-14) [nM] | Ki (MMP-9) [nM] | Structure (SMILES)
1 | 549 | 0.69 | CCCCOc1ccc(N2CCN(S(=O)(=O)C3(C(=O)NO)CCN(c4ccc(O)nn4)CC3)CC2)cc1 [Example 283]
2 | 2770 | 0.99 | CCCCOc1ccc(N2CCN(S(=O)(=O)C3(C(=O)NO)CCN(CCOC)CC3)CC2)c(F)c1 [Example 284]
3 | > 10000 | 9.83 | CCCCOc1ccc(N2CCN(S(=O)(=O)C3(C(=O)NO)CCN(Cc4ccccc4)CC3)CC2)cc1F [Example 285]
4 | > 10000 | 22.3 | CCCCOc1ccc(N2CCN(S(=O)(=O)C3(C(=O)NO)CCNCC3)CC2)cc1F [Example 286]
5 | 6940 | 13.9 | COCCN1CCC(C(=O)NO)(S(=O)(=O)N2CCN(c3ccc(Oc4ccccc4)cc3)CC2)CC1 [Example 287]
6 | 6540 | 3.51 | CCCCOc1ccc(N2CCN(S(=O)(=O)C3(C(=O)NO)CCN(C(=O)CN)CC3)CC2)cc1 [Example 292]
7 | 5440 | 2.21 | CCCCOc1ccc(N2CCN(S(=O)(=O)C3(C(=O)NO)CCN(Cc4cccnc4)CC3)CC2)cc1F [Example 293]
8 | 8650 | 17.1 | CCCCOc1ccc(N2CCN(S(=O)(=O)C3(C(=O)NO)CCN(c4ccc(C)cc4)CC3)CC2)cc1 [Example 295]
9 | > 10000 | 2.99 | CCCCOc1ccc(N2CCN(S(=O)(=O)C3(C(=O)NO)CCN(CC4CC4)CC3)CC2)cc1 [Example 298]
10 | > 10000 | 43.6 | Cc1cc(N2CCN(S(=O)(=O)C3(C(=O)NO)CCOCC3)CC2)ccc1OC(C)C [Example 299]
11 | > 10000 | 142 | CS(=O)(=O)c1ccc(N2CCN(S(=O)(=O)C3(C(=O)NO)CCOCC3)CC2)cc1 [Example 300]
12 | 5000 | 1.48 | C#CCN1CCC(C(=O)NO)(S(=O)(=O)N2CCN(c3ccc(OCCCC)cc3)CC2)CC1 [Example 303]
13 | 645 | 0.133 | CCCCCc1ccc(C2CCN(S(=O)(=O)C3(C(=O)NO)CCOCC3)CC2)nc1 [Example 305]
14 | 31.7 | 1.03 | O=C(NO)C1(S(=O)(=O)N2CCC(c3ccc(Br)cn3)CC2)CCOCC1 [Example 306]
15 | 1040 | 11.3 | O=C(NO)C1(S(=O)(=O)N2CCC(c3ccc(-c4ccc(F)cc4F)cn3)CC2)CCOCC1 [Example 308]
16 | 1440 | 0.102 | COCCN1CCC(C(=O)NO)(S(=O)(=O)N2CCC(c3ccc(CCC(F)(F)F)cc3)CC2)CC1 [Example 309]
17 | 4820 | 0.346 | COCCN1CCC(C(=O)NO)(S(=O)(=O)N2CCC(c3ccc(CCCC(F)(F)F)cc3)CC2)CC1 [Example 310]
18 | > 10000 | 35.7 | COCCN1CCC(C(=O)NO)(S(=O)(=O)N2CCC(c3ncc(CC(C)C)s3)CC2)CC1 [Example 311]
19 | 2040 | 0.24 | COCCN1CCC(C(=O)NO)(S(=O)(=O)N2CCC(c3ccc(CCC(F)(F)C(F)(F)F)cc3)CC2)CC1 [Example 312]
